Assay results from US20060074109A1, “Use of inhibitors of 24-hydroxylase in the treatment of cancer” (Sapphire Therapeutics, Inc., priority 2004, published 2006).

What was measured:
OVCAR-3 cells = assay: Cell growth assay, crystal violet, 11 days; type: cell-based, human; settings: for effect on growth inhibition: Experiment V
Experimental: The human ovarian adenocarcinoma cell line, OVCAR-3 (ATCC, Manassas, Va.) was maintained, as recommended by the supplier, in RPMI 1640 medium (Sigma Aldrich, St. Louis, Mo.) supplemented with 10% FBS, 10 μg/ml insulin, 0.25% glucose and antibiotics (100 IU/ml penicillin, 100 μg/ml streptomycin). Human ovarian adenocarcinoma cell lines UT-OC-1, UT-OC-2, UT-OC-3, UT-OC-4, UT-OC-5 (Grenman, S., Engblom, P., Rantanen, V., Klemi, P. and Isola, J., “Cytogenetic Characterization of Five New Ovarian Carcinoma Cell Lines,” Acta Obstet. Gynecol. Scand., 76:83 (1997)) and SK-OV-3 and a human keratinocyte cell line HaCaT were grown in DMEM (Sigma Aldrich) with 10% FBS and antibiotics (100 IU/ml penicillin, 100 μg/ml streptomycin), and monkey kidney COS cells were maintained in DMEM/F12 (Sigma Aldrich) with 5% FBS. All cell lines were kept at 37° C. in a humidified 95% air/5% CO2 incubator.
When OVCAR-3 cells were on the logarithmic growth phase (70% confluent) the growth assay was started. For cell growth assay, 2,000 cell/200 μl/well were plated on 96-well culture plates. […] Ethanol was used as a vehicle, and it was also included in the control. The medium containing ethanol vehicle and/or hormones were changed to a fresh one every third day. Cell growth samples were taken 0, 1, 3, 5, 7, 9 and 11 days after the treatment.
Relative cell numbers were quantified as described previously (Kueng W, Silber E, Eppenberger U. Quantification of cells cultured on 96-well plates. Anal. Biochem., 182:16-9 (1989)). Cells were fixed on the bottom of the wells by addition of 10 μl of 11% glutaraldehyde solution in 0.1% phosphate buffer to 100 μl of medium. The plate was shaken 500 cycles/min for 15 min, washed 3 times by submersion in de-ionised water and air-dried. Fixed cells were stained with 0.1% solution of crystal violet dissolved in de-ionised water. After 20 min incubation, excess dye was removed by carefully washing with de-ionised water. The plate was air-dried prior to a bound dye solubilisation in 100 μl of 10% acetic acid. Relative cell number was given as absorbance units by measuring the optical density (590 nm) from each well using Victor 1420 multilabel counter (Wallac, Turku, Finland). Six determinations were used to calculate the mean optical density ±SD in each concentration at each time point. The absorbance value of day 0 (an overnight culture of 2,000 cells/well) was set as 0 by subtracting it from each value obtained from adjacent time-point measurements (days 1-11), and based on these values growth curves were created. Experiments were repeated 3-5 times. Day 11 was used to compare the effect of hormone treatments and 24OHase inhibitor. Statistical analyses were done using Student's t-test.
The cell growth response was determined as described in Experiment I. Briefly, cells were treated with indicated hormone concentrations or combinations of hormone and 24OHase inhibitor (VID400) for 11 days. The growth medium and hormones were changed to a fresh one every third day. After the treatment period, cells were fixed, stained with crystal violet, and the optical density (590 nm) was determined. The cell growth is presented as a percentage of ethanol-treated cells. The values represent the mean of 3 separate experiments ±SD. (*p<0.05, **p<0.001, ***p<0.0001, Student's t-test).
Cell growth samples were obtained after 11 days treatment.

1αOHase in OVCAR-3 cells = target: T1, 1αOHase in OVCAR-3 cells (Homo sapiens, UniProt O15528); assay: Metabolic analysis of 25(OH)D3: 1,25(OH)2D3 production; type: cell-based
T1 construct: showing the expression of 1αOHase in OVCAR-3 cells; endogenous in cells; host or cells: OVCAR-3
T1 sequence (O15528 1-508): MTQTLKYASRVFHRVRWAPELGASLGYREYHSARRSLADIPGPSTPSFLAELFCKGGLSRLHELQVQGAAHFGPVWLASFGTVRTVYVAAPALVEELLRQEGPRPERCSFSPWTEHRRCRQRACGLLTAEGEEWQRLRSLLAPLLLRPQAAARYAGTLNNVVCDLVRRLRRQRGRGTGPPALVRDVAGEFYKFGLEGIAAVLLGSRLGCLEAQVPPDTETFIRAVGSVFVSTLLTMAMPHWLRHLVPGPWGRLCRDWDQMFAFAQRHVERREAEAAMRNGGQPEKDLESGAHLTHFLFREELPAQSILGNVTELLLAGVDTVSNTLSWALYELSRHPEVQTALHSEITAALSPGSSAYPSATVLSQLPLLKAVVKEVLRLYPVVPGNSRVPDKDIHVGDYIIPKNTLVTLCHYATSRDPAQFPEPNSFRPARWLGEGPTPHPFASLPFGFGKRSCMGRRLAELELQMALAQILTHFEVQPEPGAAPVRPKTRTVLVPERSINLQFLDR
Experimental: OVCAR-3 cells (1.5×10^6 cell/flask) were plated on T25 culture flasks. One day after plating, cells were treated with 500 nM 25(OH)D3 in RPMI 1640 medium supplemented with 10% FBS, 10 μg/ml insulin, 0.25% glucose and antibiotics (100 IU/ml penicillin, 100 μg/ml streptomycin). After 0, 3 or 24 hr, the medium was collected and the cell monolayer was extracted with 1 ml methanol. After 15 min incubation at room temperature, the methanol was transformed into the same tube than the sample medium. The samples for the measurement of the 25(OH)D3 metabolites were purified using the acetonitrile-C 18 Sep-Pak (Waters Corporation, Milford, Mass.) procedure (Turnbull, H., Trafford, D. J., Makin, H. L., “A Rapid and Simple Method for the Measurement of Plasma 25-hydroxyvitamin D2 and 25-hydroxyvitamin D3 Using Sep-Pak C 18 Cartridges and a Single High-Performance Liquid Chromatographic Step,” Clin. Chim. Acta., 120:65-76 (1982)) followed by separation of the metabolites by a high-performance liquid chromatography. […] The second measurement was done following the same procedure except dextran charcoal-treated FBS was used instead of FBS, 24OHase inhibitor (200 nM VID400) was used with the 500 nM 25(OH)D3 treatment, and the samples were collected only after 0 and 24 hr.

Compound | growth inhibition compared to the control (OVCAR-3 cells; 200 nM VID400 alone, 11 days, Experiment IV) | growth inhibition compared to the control (OVCAR-3 cells; 200 nM VID400 combined with 1 nM 1,25(OH)2D3, 11 days) | growth inhibition compared to the control (OVCAR-3 cells; 200 nM VID400 combined with 10 nM 1,25(OH)2D3, 11 days) | effect on growth inhibition (OVCAR-3 cells; 200 nM VID 400 combined with 10 nM 1,25(OH)2D3, 11 days) | growth inhibition compared to the control (OVCAR-3 cells; 200 nM VID400 combined with 100 nM 25(OH)D3, 11 days) | effect on growth inhibition (OVCAR-3 cells; 200 nM VID 400 combined with EB 1089, 11 days) | effect on growth inhibition (OVCAR-3 cells; 200 nM VID 400 combined with retinoids, 11 days) | effect on production of 1,25(OH)2D3 (1αOHase in OVCAR-3 cells; 200 nM VID400 + 500 nM 25(OH)D3, 24 hr, second experiment) | 1,25(OH)2D3 (1αOHase in OVCAR-3 cells; 500 nM 25(OH)D3 + 200 nM VID400, 24 hr, experiment II (dextran charcoal-treated FBS)) | stimulated growth compared to the control (OVCAR-3 cells; 10 nM, 11 days) | stimulated growth compared to the control (OVCAR-3 cells; 50 nM, 11 days) | stimulated growth compared to the control (OVCAR-3 cells; 100 nM alone, 11 days, Experiment IV, not statistically significant) | stimulated growth compared to the control (OVCAR-3 cells; 100 nM, 11 days, Experiment I) | stimulated growth compared to the control (OVCAR-3 cells; 200 nM, 11 days) | stimulated growth compared to the control (OVCAR-3 cells; 500 nM, 11 days) | 1,25(OH)2D3 (1αOHase in OVCAR-3 cells; 500 nM 25(OH)D3, 0 hr, experiment I (FBS)) | 1,25(OH)2D3 (1αOHase in OVCAR-3 cells; 500 nM 25(OH)D3, 3 hr, experiment I (FBS)) | 1,25(OH)2D3 (1αOHase in OVCAR-3 cells; 500 nM 25(OH)D3, 24 hr, experiment I (FBS)) | 1,25(OH)2D3 (1αOHase in OVCAR-3 cells; 500 nM 25(OH)D3, 24 hr, experiment II (dextran charcoal-treated FBS))
O=C(NC[C@@H](c1ccccc1)n1ccnc1)c1ccc(-c2ccc(Cl)cc2)cc1 [VID400, 2-(R)-4′-Chlorobiphenyl-4-carboxylic acid (2-imidazol-1-yl-2-phenyl-ethyl)-amide] | 8% | 27% | 77% | clearly enhanced the growth inhibition | 14% | had no additional effect on cell growth inhibition | slightly augmented the growth inhibition | did not have an effect on production of 1,25(OH)2D3 | 27 pM |  |  |  |  |  |  |  |  |  | 
C=C1CC[C@H](O)C/C1=C/C=C1\CCC[C@]2(C)[C@@H]([C@H](C)CCCC(C)(C)O)CC[C@@H]12 [25(OH)D3, monohydroxyvitamin D3] |  |  |  |  |  |  |  |  |  | 32% | 41% | 18% | 39% | 35% | 11% | 23 pM | 37 pM | 33 pM | 28 pM
